Assay results as given in ChEMBL document CHEMBL1140624, “Improved biochemical strategies for targeted delivery of taxoids” (Bioorg Med Chem, 2007).
In brackets after ≈: the same amount, converted by molar mass. One block for each compound: values may come before it. Activity calls are given as the source filed them. The rule behind the calls is not given here.

Assays:
[1] = test system: MCF7; assay: Cytotoxicity against human MCF7 cells; format: functional, cell-based
[2] = Aqueous solubility of the compound; format: physicochemical; conditions: aqueous solution
[3] = test system: EVSA-T; assay: Cytotoxicity against human EVSA-T cells; format: functional, cell-based
[4] = test system: LoVo; assay: Cytotoxicity against human LoVo cells in presence of beta-glucuronidase; format: functional, cell-based
[5] = test system: LoVo; assay: Ratio of IC50 of drug for human LoVo cells to IC50 of taxol for human LoVo cells; format: functional
[6] = Half life in presence of 30 ug/mL beta-glucuronidase assessed as taxol release at 30 ug/mL; format: ADME
[7] = Half life in presence of 10 uM beta-glucuronidase assessed as taxol release at 100 uM; format: ADME
[8] = test system: OVCAR-3; assay: Cytotoxicity against human OVCAR-3 cells in presence of beta-glucuronidase; format: functional, cell-based
[9] = test system: OVCAR-3; assay: Cytotoxicity against human OVCAR-3 cells; format: functional, cell-based
[10] = Half life in DTT buffer assessed as taxol release; format: ADME
[11] = test system: MCF7; assay: Cytotoxicity against ERalpha positive human MCF7 cells; format: functional, cell-based
[12] = test system: M19 melanoma cell line (human); assay: Cytotoxicity against human M19 melanoma cells
[13] = test system: MDA-MB-231; assay: Cytotoxicity against ERalpha negative human MDA-MB-231 cells; format: functional, cell-based
[14] = test system: A498; assay: Cytotoxicity against human A498 cells; format: functional, cell-based
[15] = test system: WiDr; assay: Cytotoxicity against human WIDR cells; format: functional, cell-based
[16] = Cytotoxicity against human H226 cells; format: functional, cell-based; conditions: NCI-H226
[17] = test system: PC-3; assay: Cytotoxicity against ERbeta positive human PC3 cells; format: functional, cell-based
[18] = Cytotoxicity against human IGROV cells; format: functional, cell-based
[19] = test system: A2780; assay: Cytotoxicity against ERbeta negative human A2780 cells; format: functional, cell-based

- solubility [2]: 600 µg/mL
Compound: CC(=O)O[C@H]1C(=O)[C@@]2(C)[C@H]([C@H](OC(=O)c3ccccc3)[C@]3(O)C[C@H](OC(=O)[C@H](OC(=O)C[C@H](O)C(=O)[O-])[C@@H](NC(=O)c4ccccc4)c4ccccc4)C(C)=C1C3(C)C)[C@]1(OC(C)=O)CO[C@@H]1C[C@@H]2O.[Na+]
- IC50 [1]: < 0.003 µg/mL
- IC50 [3]: < 0.003 µg/mL

Compound: CC(=O)O[C@H]1C(=O)[C@@]2(C)[C@H]([C@H](OC(=O)c3ccccc3)[C@]3(O)C[C@H](OC(=O)[C@H](OC(=O)N(C)c4cc([N+](=O)[O-])ccc4O[C@@H]4O[C@H](C(=O)O)[C@@H](O)[C@H](O)[C@H]4O)[C@@H](NC(=O)c4ccccc4)c4ccccc4)C(C)=C1C3(C)C)[C@]1(OC(C)=O)CO[C@@H]1C[C@@H]2O
- IC50 [4]: 100 nM
- Ratio IC50 [5]: 722

- t1/2 [6]: 10 min
Compound: CC(=O)O[C@H]1C(=O)[C@@]2(C)[C@H]([C@H](OC(=O)c3ccccc3)[C@]3(O)C[C@H](OC(=O)[C@H](OC(=O)N(C)CCN(C)C(=O)OCc4ccc(O[C@@H]5O[C@H](C(=O)O)[C@@H](O)[C@H](O)[C@H]5O)c(N)c4)[C@@H](NC(=O)OC(C)(C)C)c4ccccc4)C(C)=C1C3(C)C)[C@]1(OC(C)=O)CO[C@@H]1C[C@@H]2O
- Activity [4]: inactive
- Ratio IC50 [5]: 187

- t1/2 [7]: 45 min
Compound: CC(=O)O[C@H]1C(=O)[C@@]2(C)[C@H]([C@H](OC(=O)c3ccccc3)[C@]3(O)C[C@H](OC(=O)[C@H](OC(=O)CCc4ccc(NC(=O)O[C@@H]5O[C@H](C(=O)[O-])[C@@H](O)[C@H](O)[C@H]5O)cc4)[C@@H](NC(=O)c4ccccc4)c4ccccc4)C(C)=C1C3(C)C)[C@]1(OC(C)=O)CO[C@@H]1C[C@@H]2O.[Na+]
- IC50 [8]: 1.1 nM
- IC50 [9]: 27 nM

- t1/2 [10]: 4 min
Compound: CC(=O)O[C@H]1C(=O)[C@@]2(C)[C@H]([C@H](OC(=O)c3ccccc3)[C@]3(O)C[C@H](OC(=O)[C@H](OC(=O)C(C)(C)CCSSc4ccccn4)[C@@H](NC(=O)c4ccccc4)c4ccccc4)C(C)=C1C3(C)C)[C@]1(OC(C)=O)CO[C@@H]1C[C@@H]2O

Compound: CC(=O)O[C@H]1C(=O)[C@@]2(C)[C@H]([C@H](OC(=O)c3ccccc3)[C@]3(O)C[C@H](OC(=O)[C@H](OC(=O)NCCNC(=O)[C@H](CCCCN)NC(=O)[C@H](Cc4ccccc4)NC(=O)[C@@H](C)N)[C@@H](NC(=O)c4ccccc4)c4ccccc4)C(C)=C1C3(C)C)[C@]1(OC(C)=O)CO[C@@H]1C[C@@H]2O.Cl
- IC50 [11]: 4.9 nM
- IC50 [12]: 0.045 µg/mL
- IC50 [1]: 0.016 µg/mL
- IC50 [13]: 4.5 nM
- IC50 [14]: 0.04 µg/mL
- IC50 [15]: 0.013 µg/mL
- IC50 [16]: 0.041 µg/mL
- IC50 [17]: 77 nM
- IC50 [18]: 0.019 µg/mL
- IC50 [3]: 0.011 µg/mL

- solubility [2]: 500 µg/mL (≈ 460 µM)
Compound: CC(=O)O[C@H]1C(=O)[C@]2(C)[C@@H](OC(=O)C[C@H](O)C(=O)O)C[C@H]3OC[C@@]3(OC(C)=O)[C@H]2[C@H](OC(=O)c2ccccc2)[C@]2(O)C[C@H](OC(=O)[C@H](OC(=O)C[C@H](O)C(=O)O)[C@@H](NC(=O)c3ccccc3)c3ccccc3)C(C)=C1C2(C)C
- IC50 [1]: 0.069 µg/mL (≈ 0.0635 µM)
- IC50 [3]: 0.059 µg/mL (≈ 0.0543 µM)

Compound: CC(=O)O[C@H]1C(=O)[C@@]2(C)[C@H]([C@H](OC(=O)c3ccccc3)[C@]3(O)C[C@H](OC(=O)[C@H](OC(=O)CCC(=O)O[C@@H]4C[C@]5(C)[C@@H](O)CC[C@H]5[C@@H]5CCc6cc(O)ccc6[C@H]54)[C@@H](NC(=O)c4ccccc4)c4ccccc4)C(C)=C1C3(C)C)[C@]1(OC(C)=O)CO[C@@H]1C[C@@H]2O
- IC50 [11]: 62 nM
- IC50 [13]: 51 nM
- IC50 [19]: 680 nM
- IC50 [17]: 40 nM

- t1/2 [10]: 60 min
Compound: CC(=O)O[C@H]1C(=O)[C@@]2(C)[C@H]([C@H](OC(=O)c3ccccc3)[C@]3(O)C[C@H](OC(=O)[C@H](OC(=O)C(C)(C)CCSSCC(NC(=O)CCC(N)C(=O)O)C(=O)NCC(=O)O)[C@@H](NC(=O)c4ccccc4)c4ccccc4)C(C)=C1C3(C)C)[C@]1(OC(C)=O)CO[C@@H]1C[C@@H]2O (stereo partly drawn)

- t1/2 [6]: 10 min
Compound: CC(=O)O[C@H]1C(=O)[C@@]2(C)[C@H]([C@H](OC(=O)c3ccccc3)[C@]3(O)C[C@H](OC(=O)C(OC(=O)N(C)CCN(C)C(=O)OCc4ccc(O[C@@H]5O[C@H](C(=O)O)[C@@H](O)[C@H](O)[C@H]5O)c(N)c4)[C@@H](NC(=O)c4ccccc4)c4ccccc4)C(C)=C1C3(C)C)[C@]1(OC(C)=O)CO[C@@H]1C[C@@H]2O (stereo partly drawn)
- Activity [4]: inactive
- Ratio IC50 [5]: 153
